± gives the expanded uncertainty stated by the source.
Conditions: 283.16 K, Liquid, Vibrating tube method

Measured: mass density

CCCC(=O)OCC(COC(=O)CCC)(COC(=O)CCC)COC(=O)CCC [pentaerythritol tetrabutyrate]
1070.3 ± 1.3 kg/m3: 19631 kPa | 19642 kPa | 19654 kPa | 19669 kPa | 19694 kPa | 19717 kPa | 19732 kPa | 19743 kPa | 19757 kPa | 19769 kPa | 19807 kPa | 19846 kPa | 19921 kPa | 20026 kPa
1071.4 ± 1.3 kg/m3: 21523 kPa | 21554 kPa | 21600 kPa | 21723 kPa | 21785 kPa | 21800 kPa
1071.6 ± 1.3 kg/m3: 22039 kPa | 22057 kPa | 22072 kPa | 22087 kPa | 22102 kPa | 22136 kPa | 22154 kPa | 22169 kPa | 22184 kPa | 22219 kPa | 22234 kPa | 22266 kPa | 22284 kPa
1071.1 ± 1.3 kg/m3: 21090 kPa | 21104 kPa | 21118 kPa | 21148 kPa | 21178 kPa | 21223 kPa | 21237 kPa | 21251 kPa | 21267 kPa | 21340 kPa
1070.2 ± 1.3 kg/m3: 19617 kPa | 19681 kPa
1070.6 ± 1.3 kg/m3: 19975 kPa | 20039 kPa | 20117 kPa | 20145 kPa | 20185 kPa | 20197 kPa | 20210 kPa | 20225 kPa | 20237 kPa | 20250 kPa | 20277 kPa | 20305 kPa | 20317 kPa | 20493 kPa
1071.7 ± 1.3 kg/m3: 22200 kPa | 22250 kPa | 22300 kPa | 22316 kPa | 22331 kPa
1072 ± 1.3 kg/m3: 22842 kPa | 22877 kPa
1071.5 ± 1.3 kg/m3: 21818 kPa | 22023 kPa | 22121 kPa
1070.9 ± 1.3 kg/m3: 20773 kPa | 20787 kPa | 20800 kPa | 20816 kPa | 20914 kPa
1072.1 ± 1.3 kg/m3: 22861 kPa
1070.8 ± 1.3 kg/m3: 20290 kPa | 20480 kPa | 20506 kPa | 20534 kPa | 20548 kPa | 20563 kPa | 20576 kPa | 20592 kPa | 20605 kPa | 20618 kPa | 20858 kPa
1070.7 ± 1.3 kg/m3: 20157 kPa | 20264 kPa | 20330 kPa | 20468 kPa | 20521 kPa
1071.3 ± 1.3 kg/m3: 21295 kPa | 21445 kPa | 21463 kPa | 21568 kPa
1070.4 ± 1.3 kg/m3: 19706 kPa | 19781 kPa | 19796 kPa | 19819 kPa | 19834 kPa | 19885 kPa | 19897 kPa | 19909 kPa | 19936 kPa | 19947 kPa
1071.9 ± 1.3 kg/m3: 22790 kPa | 22826 kPa
1070.5 ± 1.3 kg/m3: 19858 kPa | 19870 kPa | 19962 kPa | 19986 kPa | 20001 kPa | 20014 kPa | 20053 kPa | 20065 kPa | 20077 kPa | 20092 kPa | 20104 kPa | 20130 kPa | 20170 kPa
1071 ± 1.3 kg/m3: 20829 kPa | 20845 kPa | 20872 kPa | 20886 kPa | 20900 kPa | 20930 kPa | 21000 kPa | 21016 kPa | 21030 kPa | 21044 kPa | 21060 kPa | 21076 kPa | 21134 kPa | 21162 kPa | 21192 kPa | 21209 kPa
1071.2 ± 1.3 kg/m3: 21282 kPa | 21312 kPa | 21326 kPa | 21400 kPa | 21417 kPa | 21431 kPa | 21477 kPa | 21491 kPa | 21508 kPa | 21537 kPa

From the NIST ThermoML archive (doi:10.1021/je060271a)
